According to patent US20130267474A1, “NOVEL PHYTOCHEMICALS FROM EXTRACTS OF MAPLE SYRUPS AND MAPLE TREES AND USES THEREOF” (UNIVERSITY OF RHODE ISLAND, priority 2010, published 2013):
Where two headings read alike, the source gives them in different places.

Tests used:
[1] = test system: colon cancer (HCT-116, Caco-2 and HT-29) cell lines; assay: MTS antiproliferative assay, statements pooled over the colon cancer cell lines
CCD-18Co cells = assay: Flow cytometry analysis of cell cycle; format: cell-based, human; settings: 48 and 72 h
Protocol: (§1) (2×10^5) are collected after the corresponding experimental periods, fixed in ice-cold ethanol:PBS (70:30, v/v) for 30 min at 4° C., further resuspended in PBS with 100 μg ml^−1 RNAse and 40 μg ml^−1 propidium iodide, and then incubated at 37° C. for 30 min. The DNA content (10,000 cells) is analyzed using a FACS Calibur instrument equipped with FACStation running FACS Calibur software (BD Biosciences, San Diego, Calif., USA). The analyses of cell cycle distribution are performed in triplicate for each treatment (tested at 50 μg/mL concentrations). The coefficient of variation, according to the ModFit LT Version 2 acquisition software package (Verity Software House, Topsham, Me., USA), is always less than 5%.
as §1, with “Cells (2×10^5)” for “(2×10^5)”, “μg/mL” for “μg ml^−1”, “and” for “and then”, “min.” for “min. The”, “analysed” for “analyzed”, “treatment.” for “treatment (tested at 50 μg/mL concentrations).”

[2] = test system: HCT-116 (human colon carcinoma); assay: MTS cytotoxicity / antiproliferative assay; format: cell-based; settings: Homo sapiens
Protocol: (§2) Cell lines included three human colon cancer cells: HT-29 (human colon adenocarcinoma), HCT116 (human colon carcinoma) and Caco-2 (human epithelial colorectal adenocarcinoma). In addition, normal human colon cells are included: CCD-^18Co (human colon fibroblasts). All cell lines are obtained from the American Type Culture Collection (ATCC, Rockville, Md., USA) and maintained at the University of Rhode Island.
(§3) The assay is carried out to measure the IC50 values for samples. […] Test samples and a positive control, etoposide 4 mg/mL (Sigma), are solubilized in DMSO by sonication. […] Control wells are also included on all plates. […] Each point on the curve is […]. Data (see tables 6 to 9) are expressed as mean±SE for three replications on each cell line.

[3] = test system: HT-29 (human colon adenocarcinoma); assay: MTS cytotoxicity / antiproliferative assay; format: cell-based; settings: Homo sapiens
Protocol: as §2, §3

[4] = test system: Caco-2 (human epithelial colorectal adenocarcinoma); assay: MTS cytotoxicity / antiproliferative assay; format: cell-based; settings: Homo sapiens
Protocol: as §2, §3

[5] = test system: CCD-18Co (normal human colon fibroblasts); assay: MTS cytotoxicity / antiproliferative assay; format: cell-based; settings: Homo sapiens, CCD-18Co
Protocol: as §2, §3

SMILES: COc1cc([C@@H]2c3cc4c(cc3[C@@H](O[C@@H]3O[C@@H]5CO[C@@H](C)O[C@H]5[C@H](O)[C@H]3O)[C@H]3COC(=O)[C@H]23)OCO4)cc(OC)c1O [Etoposide, reference compound]
- IC50 ([1]; Homo sapiens, read-out: IC50 (HT29, HCT116 and Caco-2), positive control, footnote of Table 16): 10 to 20 µM
- IC50 ([1]; Homo sapiens, read-out: IC50 of positive control, MTS, HT-29, HCT116 and Caco-2): 15 to 25 µM
- IC50 ([1]; read-out: IC50 of positive control, MTS, HT-29, HCT116 and Caco-2): 10 to 20 µM
- changes in cell cycle compared with control cells (CCD-18Co cells): slight but significant changes in the S phase
- IC50 ([2]; HCT-116, 48 h, read-out: HCT-116 48 h (IC50), 48 h): 26.9 µM
- IC50 ([2]; HCT-116, 48 h, read-out: HCT-116 48 h(IC50), Table 6 maple compounds, 48 h, unit inferred): 28.5 µM
- IC50 ([2]; HCT-116, 72 h, 72 h, read-out: HCT-116 72 h (IC50)): 14.4 µM
- IC50 ([2]; HCT-116, 72 h, Table 6 maple compounds, 72 h, unit inferred, read-out: HCT-116 72 h(IC50)): 21.9 µM
- IC50 ([2]; HCT-116, 72 h, Table 7 maple extracts, 72 h, unit inferred, read-out: HCT-116 72 h(IC50)): 14.4 µM
- IC50 ([3]; HT-29, 48 h, read-out: HT-29 48 h (IC50), 48 h): 13.4 µM
- IC50 ([3]; HT-29, 48 h, read-out: HT-29 48 h(IC50), Table 6 maple compounds, 48 h, unit inferred): 21.2 µM
- IC50 ([3]; HT-29, 48 h, read-out: HT-29 48 h(IC50), Table 7 maple extracts, 48 h, unit inferred): 13.4 µM
- IC50 ([3]; HT-29, 72 h, 72 h, read-out: HT-29 72 h (IC50)): 7.3 µM
- IC50 ([3]; HT-29, 72 h, Table 6 maple compounds, 72 h, unit inferred, read-out: HT-29 72 h(IC50)): 12.9 µM
- IC50 ([3]; HT-29, 72 h, Table 7 maple extracts, 72 h, unit inferred, read-out: HT-29 72 h(IC50)): 7.3 µM
- IC50 ([4]; Caco-2, 48 h, read-out: Caco-2 48 h (IC50), 48 h): 18.9 µM
- IC50 ([4]; Caco-2, 48 h, read-out: Caco-2 48 h(IC50), Table 6 maple compounds, 48 h, unit inferred): 14.3 µM
- IC50 ([4]; Caco-2, 72 h, 72 h, read-out: Caco-2 72 h (IC50)): 16.1 µM
- IC50 ([4]; Caco-2, 72 h, Table 6 maple compounds, 72 h, unit inferred, read-out: Caco-2 72 h(IC50)): 12.3 µM
- IC50 ([4]; Caco-2, 72 h, Table 7 maple extracts, 72 h, unit inferred, read-out: Caco-2 72 h(IC50)): 16.1 µM
- IC50 ([5]; 48 h, read-out: CCD-18Co 48 h (IC50), 48 h): 48.7 µM
- IC50 ([5]; 48 h, read-out: CCD-18Co 48 h(IC50), Table 6 maple compounds, 48 h, unit inferred): 45.1 µM
- IC50 ([5]; 72 h, Table 6 maple compounds, 72 h, unit inferred, read-out: CCD-18Co 72 h(IC50)): 42.4 µM
- IC50 ([5]; 72 h, read-out: CCD-18Co 72 h (IC50)): 43.9 µM
- IC50 ([5]; CCD-18Co cells, read-out: IC50 of positive control, MTS): 40 to 45 µM
- IC50 ([5]; positive control, footnote of Table 16, read-out: IC50 for the CCD-18Co cells): 30 to 40 µM
